Read-outs that look alike come from different tables or passages of the source.
Legend:
HCV = settings: R155K (danoprevir) or R155K/D168V (vaniprevir) mutants detected; cited from earlier work
HCV R155K mutation = settings: clinical trials and replicon cell assays (Bartels et al.; Lu et al.; Zhou et al.); cited from earlier work
Aqueous solubility = type: physicochemical
GT 1a replicon R155K = experiment: HCV subgenomic replicon system, GT 1a R155K; type: cell-based
Protocol: (§1) Phenotypic analyses of clinical samples were also performed. For replicon transient transfection assays, RNA was transcribed from linearized plasmid DNA using a TranscriptAid T7 transcription kit (Fermentas) and 15 μg RNA was electroporated into Huh7-derived cells. For EC50 determinations, various concentrations of Compound I were added to cells 1-2 hr after plating and the cells were cultured for 4 days, followed by measurement of luciferase activity with a luciferase assay system kit (Promega).

GT 1b replicon D168V = experiment: HCV subgenomic replicon system, GT 1b D168V; type: cell-based
Protocol: as §1

GT 1b replicon WT = experiment: HCV subgenomic replicon system, GT 1b WT; type: cell-based; settings: Hepatitis C virus, GT1B
Protocol: as §1

[1] = system: NS3 protease domain from GT 1b HCV-infected subjects in replicon shuttle vector; experiment: Replicon transient transfection EC50, NS3 protease domain from subjects cloned into shuttle vector, GT 1b; type: cell-based; settings: for EC50: Hepatitis C virus, GT1B
Source text: (§2) Viral RNA was isolated from the plasma of HCV-infected patients at baseline (Day 1) and Day 4 by using an automated (Abbott m2000) or manual (QIAgen QIAamp Viral RNA Mini Kit) method. Amplicons containing the NS3-4A region were generated by RT-PCR, and PCR fragments containing the first 250 amino acids of NS3 were generated in a second round of PCR. The NS3 domain fragment was subsequently cloned into pJET (Fermentas) vector for clonal sequencing or digested with restriction enzymes and cloned into the replicon shuttle vector for phenotypic analysis. The lower limit of detection of the RT-PCR amplification method restricted the analysis to patient samples with HCV RNA levels above ˜500-1000 IU/mL.
as §1

GT 1a replicon D168A = experiment: HCV subgenomic replicon system, GT 1a D168A; type: cell-based
Protocol: as §1

GT 1a replicon D168V = experiment: HCV subgenomic replicon system, GT 1a D168V; type: cell-based
Protocol: as §1

GT 1a replicon WT = experiment: HCV subgenomic replicon system, GT 1a WT; type: cell-based; settings: Hepatitis C virus, GT1A
Protocol: as §1

GT 1a replicon R155G = experiment: HCV subgenomic replicon system, GT 1a R155G; type: cell-based
Protocol: as §1

[2] = system: NS3 protease domain from GT 1a HCV-infected subjects in replicon shuttle vector; experiment: Replicon transient transfection EC50, NS3 protease domain from subjects cloned into shuttle vector, GT 1a; type: cell-based; settings: for Fold Change: GT 1a; for EC50: Hepatitis C virus, GT1A
Source text: as §2
Phenotypic analyses of clinical samples were also performed. For replicon transient transfection assays, RNA was transcribed from linearized plasmid DNA using a TranscriptAid T7 transcription kit (Fermentas) and 15 μg RNA was electroporated into Huh7-derived cells. […]

## CC[C@@H]1C[C@]1(NC(=O)[C@@H]1C[C@@H]2CN1C(=O)[C@H](C(C)(C)C)NC(=O)OCC(C)(C)CCCCc1cccc3c1CN(C3)C(=O)O2)C(=O)NS(=O)(=O)C1CC1 [vaniprevir]
HCV
  Viral load rebound in patients receiving treatment: viral load rebound

## CC(C)(C)OC(=O)N[C@H]1CCCCC/C=C\[C@@H]2C[C@@]2(C(=O)NS(=O)(=O)C2CC2)NC(=O)[C@@H]2C[C@@H](OC(=O)N3Cc4cccc(F)c4C3)CN2C1=O [danoprevir]
HCV
  Viral load rebound in patients receiving treatment: Viral load rebound
HCV R155K mutation
  Resistance conferred by the R155K mutation: high-level resistant

## Cc1cnc(C(=O)N[C@H]2CCCCC/C=C\[C@@H]3C[C@@]3(C(=O)NS(=O)(=O)C3CC3)NC(=O)[C@@H]3C[C@@H](Oc4nc5ccccc5c5ccccc45)CN3C2=O)cn1 [Compound I, (2R,6S,13aS,14aR,16aS,Z)—N-(cyclopropylsulfonyl)-6-(5-methylpyrazine-2-carboxamido)-5,16-dioxo-2-(phenanthridin-6-yloxy)-1,2,3,5,6,7,8,9,10,11,13a,14,14a,15,16,16a-hexadecahydrocyclopropa[e]pyrrolo[1,2-a][1,4]diazacyclopentadecine-14a-carboxamide]
Aqueous solubility
  Aqueous solubility: low aqueous solubility
GT 1a replicon R155K; EC50 of GT 1a R155K vs GT 1a WT
  Fold Change: 43
GT 1a replicon R155K; Hepatitis C virus, GT1A
  EC50: 51.5 nM
GT 1b replicon D168V; EC50 of GT 1b D168V vs GT 1b WT
  Fold Change: 257
GT 1b replicon D168V; Hepatitis C virus, GT1B
  EC50: 17.5 nM
GT 1b replicon WT
  EC50: 0.07 nM
[1]; 24 h, read-out: EC50 Day 1, Subject F, GT 1b, 200/100 mg dose group, Day 1 (baseline) sample
  EC50: 0.04 nM
[1]; 24 h, read-out: EC50 Day 1, Subject J, GT 1b, 100/100 mg dose group, Day 1 (baseline) sample
  EC50: 0.04 nM
[1]; 24 h, read-out: EC50 Day 1, Subject K, GT 1b, 100/100 mg dose group, Day 1 (baseline) sample
  EC50: 0.07 nM
[1]; 24 h, read-out: EC50 Day 1, Subject O, GT 1b, 100/100 mg dose group, Day 1 (baseline) sample
  EC50: 0.05 nM
[1]; 24 h, read-out: EC50 Day 1, Subject S, GT 1b, 50/100 mg dose group, Day 1 (baseline) sample
  EC50: 0.06 nM
[1]; 96 h, read-out: EC50 Day 4, Subject J, GT 1b, 100/100 mg dose group, Day 4 sample
  EC50: 15.5 nM
[1]; single GT 1b subject (J), 100/100 mg dose group
  EC50 shift at day 4 relative to baseline: 368 fold
GT 1a replicon D168A; EC50 of GT 1a D168A vs GT 1a WT
  Fold Change: 59
GT 1a replicon D168A; Hepatitis C virus, GT1A
  EC50: 70.4 nM
GT 1a replicon D168V; EC50 of GT 1a D168V vs GT 1a WT
  Fold Change: 115
GT 1a replicon D168V; Hepatitis C virus, GT1A
  EC50: 136 nM
GT 1a replicon WT
  EC50: 1.19 nM
GT 1a replicon R155G; EC50 of GT 1a R155G vs GT 1a WT
  Fold Change: 16
GT 1a replicon R155G; Hepatitis C virus, GT1A
  EC50: 19.2 nM
[2]; EC50 Day 4 vs Day 1, Subject A, 200/100 mg dose group
  Fold Change: 0.9
[2]; EC50 Day 4 vs Day 1, Subject B, 200/100 mg dose group
  Fold Change: 0.8
[2]; EC50 Day 4 vs Day 1, Subject C, 200/100 mg dose group
  Fold Change: 1.0
[2]; EC50 Day 4 vs Day 1, Subject D, 200/100 mg dose group
  Fold Change: 1.1
[2]; EC50 Day 4 vs Day 1, Subject N, 100/100 mg dose group
  Fold Change: 1.1
[2]; EC50 Day 4 vs Day 1, Subject V, 50/100 mg dose group
  Fold Change: 1.7
[2]; 24 h, read-out: EC50 Day 1, Subject A, GT 1a, 200/100 mg dose group, Day 1 (baseline) sample
  EC50: 1.31 nM
[2]; 24 h, read-out: EC50 Day 1, Subject B, GT 1a, 200/100 mg dose group, Day 1 (baseline) sample
  EC50: 1.36 nM
[2]; 24 h, read-out: EC50 Day 1, Subject C, GT 1a, 200/100 mg dose group, Day 1 (baseline) sample
  EC50: 3.11 nM
[2]; 24 h, read-out: EC50 Day 1, Subject D, GT 1a, 200/100 mg dose group, Day 1 (baseline) sample
  EC50: 2.42 nM
[2]; 24 h, read-out: EC50 Day 1, Subject E, GT 1a, 200/100 mg dose group, Day 1 (baseline) sample
  EC50: 0.58 nM
[2]; 24 h, read-out: EC50 Day 1, Subject G, GT 1a, 200/100 mg dose group, Day 1 (baseline) sample
  EC50: 2.68 nM
[2]; 24 h, read-out: EC50 Day 1, Subject H, GT 1a, 100/100 mg dose group, Day 1 (baseline) sample
  EC50: 1.55 nM
[2]; 24 h, read-out: EC50 Day 1, Subject I, GT 1a, 100/100 mg dose group, Day 1 (baseline) sample
  EC50: 1.43 nM
[2]; 24 h, read-out: EC50 Day 1, Subject L, GT 1a, 100/100 mg dose group, Day 1 (baseline) sample
  EC50: 2.8 nM
[2]; 24 h, read-out: EC50 Day 1, Subject M, GT 1a, 100/100 mg dose group, Day 1 (baseline) sample
  EC50: 0.91 nM
[2]; 24 h, read-out: EC50 Day 1, Subject N, GT 1a, 100/100 mg dose group, Day 1 (baseline) sample
  EC50: 0.58 nM
[2]; 24 h, read-out: EC50 Day 1, Subject P, GT 1a, 50/100 mg dose group, Day 1 (baseline) sample
  EC50: 0.81 nM
[2]; 24 h, read-out: EC50 Day 1, Subject Q, GT 1a, 50/100 mg dose group, Day 1 (baseline) sample
  EC50: 0.68 nM
[2]; 24 h, read-out: EC50 Day 1, Subject R, GT 1a, 50/100 mg dose group, Day 1 (baseline) sample
  EC50: 5.97 nM
[2]; 24 h, read-out: EC50 Day 1, Subject T, GT 1a, 50/100 mg dose group, Day 1 (baseline) sample
  EC50: 0.45 nM
[2]; 24 h, read-out: EC50 Day 1, Subject U, GT 1a, 50/100 mg dose group, Day 1 (baseline) sample
  EC50: 1.52 nM
[2]; 24 h, read-out: EC50 Day 1, Subject V, GT 1a, 50/100 mg dose group, Day 1 (baseline) sample
  EC50: 1.01 nM
[2]; 24 h, read-out: EC50 Day 1, Subject W, GT 1a, 50/100 mg dose group, Day 1 (baseline) sample
  EC50: 1.54 nM
[2]; 96 h, read-out: EC50 Day 4, Subject A, GT 1a, 200/100 mg dose group, Day 4 sample
  EC50: 1.14 nM
[2]; 96 h, read-out: EC50 Day 4, Subject B, GT 1a, 200/100 mg dose group, Day 4 sample
  EC50: 1.06 nM
[2]; 96 h, read-out: EC50 Day 4, Subject C, GT 1a, 200/100 mg dose group, Day 4 sample
  EC50: 3.23 nM
[2]; 96 h, read-out: EC50 Day 4, Subject D, GT 1a, 200/100 mg dose group, Day 4 sample
  EC50: 2.57 nM
[2]; 96 h, read-out: EC50 Day 4, Subject H, GT 1a, 100/100 mg dose group, Day 4 sample
  EC50: 10.2 nM
[2]; 96 h, read-out: EC50 Day 4, Subject L, GT 1a, 100/100 mg dose group, Day 4 sample
  EC50: 8.84 nM
[2]; 96 h, read-out: EC50 Day 4, Subject N, GT 1a, 100/100 mg dose group, Day 4 sample
  EC50: 0.64 nM
[2]; 96 h, read-out: EC50 Day 4, Subject P, GT 1a, 50/100 mg dose group, Day 4 sample
  EC50: 8.88 nM
[2]; 96 h, read-out: EC50 Day 4, Subject R, GT 1a, 50/100 mg dose group, Day 4 sample
  EC50: 68.7 nM
[2]; 96 h, read-out: EC50 Day 4, Subject U, GT 1a, 50/100 mg dose group, Day 4 sample
  EC50: 11.5 nM
[2]; 96 h, read-out: EC50 Day 4, Subject V, GT 1a, 50/100 mg dose group, Day 4 sample
  EC50: 1.69 nM
[2]; 96 h, read-out: EC50 Day 4, Subject W, GT 1a, 50/100 mg dose group, Day 4 sample
  EC50: 9.78 nM
[2]; subjects with Day 4 samples amplified, includes GT 1b subject J
  Subjects with increased EC50 values at day 4 relative to baseline: 7 of the 13

## COc1ccc2c(O[C@@H]3C[C@H]4C(=O)N[C@]5(C(=O)O)C[C@H]5/C=C\CCCCC[C@H](NC(=O)OC5CCCC5)C(=O)N4C3)cc(-c3csc(NC(C)C)n3)nc2c1 [BILN 2061]
HCV R155K mutation
  Resistance conferred by the R155K mutation: high-level resistant

Reference: US9044480B1, “Compositions and methods for treating HCV” (priority 2011, dated 2015)
